# PubChem BioAssay (NCI)
#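 Following 48 hours of exposure in 96-well plates, responses at five concentrations were used to interpolate endpoints linearly. GI50 = concentration required for 50% inhibition of growth. TGI marks complete inhibition of growth.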
# Tests used:
# Assay in all cases: NCI anticancer screen, dose series, 48 h
# HS 578T breast = tested on: HS 578T breast
# RPMI-8226 leukemia = tested on: RPMI-8226 leukemia
# SNB-75 CNS = tested on: SNB-75 CNS
# HT29 colon = tested on: HT29 colon
# CCRF-CEM leukemia = tested on: CCRF-CEM leukemia
# COLO 205 colon = tested on: COLO 205 colon
# SNB-19 CNS = tested on: SNB-19 CNS
# A549 NSCLC = tested on: A549 NSCLC
# OVCAR-5 ovarian = tested on: OVCAR-5 ovarian
# UO-31 renal = tested on: UO-31 renal
# TK-10 renal = tested on: TK-10 renal
# SK-MEL-28 melanoma = tested on: SK-MEL-28 melanoma
# MCF7 breast = tested on: MCF7 breast
# SR leukemia = tested on: SR leukemia
# MALME-3M melanoma = tested on: MALME-3M melanoma
# IGROV1 ovarian = tested on: IGROV1 ovarian
# UACC-257 melanoma = tested on: UACC-257 melanoma
# LOX IMVI melanoma = tested on: LOX IMVI melanoma
# BT-549 breast = tested on: BT-549 breast
# OVCAR-3 ovarian = tested on: OVCAR-3 ovarian
# OVCAR-4 ovarian = tested on: OVCAR-4 ovarian
# NCI/ADR-RES ovarian = tested on: NCI/ADR-RES ovarian
# SF-539 CNS = tested on: SF-539 CNS
# MOLT-4 leukemia = tested on: MOLT-4 leukemia
# SK-OV-3 ovarian = tested on: SK-OV-3 ovarian
# K-562 leukemia = tested on: K-562 leukemia
# HOP-92 NSCLC = tested on: HOP-92 NSCLC
# MDA-MB-435 = tested on: MDA-MB-435
# A498 renal = tested on: A498 renal
# SK-MEL-5 melanoma = tested on: SK-MEL-5 melanoma
# M14 melanoma = tested on: M14 melanoma
# EKVX NSCLC = tested on: EKVX NSCLC
# MDA-MB-231 breast = tested on: MDA-MB-231 breast
# CAKI-1 renal = tested on: CAKI-1 renal
# SN12C renal = tested on: SN12C renal
# U251 CNS = tested on: U251 CNS
# HCT-116 colon = tested on: HCT-116 colon
# KM12 colon = tested on: KM12 colon
# NCI-H226 lung = tested on: NCI-H226 lung
# NCI-H23 lung = tested on: NCI-H23 lung
# HCT-15 colon = tested on: HCT-15 colon
# NCI-H522 lung = tested on: NCI-H522 lung
# UACC-62 melanoma = tested on: UACC-62 melanoma
# ACHN renal = tested on: ACHN renal
# SF-295 CNS = tested on: SF-295 CNS
# 786-0 renal = tested on: 786-0 renal
# RXF 393 renal = tested on: RXF 393 renal
# PC-3 prostate = tested on: PC-3 prostate
# HOP-62 NSCLC = tested on: HOP-62 NSCLC
# SK-MEL-2 melanoma = tested on: SK-MEL-2 melanoma
# NCI-H460 lung = tested on: NCI-H460 lung
# DU-145 prostate = tested on: DU-145 prostate
# OVCAR-8 ovarian = tested on: OVCAR-8 ovarian
# SF-268 CNS = tested on: SF-268 CNS
# HCC-2998 colon = tested on: HCC-2998 colon
# HL-60(TB) leukemia = tested on: HL-60(TB) leukemia
# SW-620 colon = tested on: SW-620 colon
# T-47D breast = tested on: T-47D breast
smiles,measurement,setting,value
CN(C)c1ccc(/C=C/C(=O)c2ccc(Nc3nc(Nc4ccc(F)cc4)nc(Nc4ccc(F)cc4)n3)cc2)cc1,GI50,HS 578T breast,14.4 µM
same,TGI,HS 578T breast,51.9 µM
same,GI50,RPMI-8226 leukemia,7.62 µM
same,TGI,RPMI-8226 leukemia,> 100 µM
same,GI50,SNB-75 CNS,13.8 µM
same,TGI,SNB-75 CNS,39 µM
same,GI50,HT29 colon,15.5 µM
same,TGI,HT29 colon,66.6 µM
same,GI50,CCRF-CEM leukemia,5.61 µM
same,TGI,CCRF-CEM leukemia,> 100 µM
same,GI50,COLO 205 colon,5.16 µM
same,TGI,COLO 205 colon,24.8 µM
same,GI50,SNB-19 CNS,29.6 µM
same,TGI,SNB-19 CNS,> 100 µM
same,GI50,A549 NSCLC,12.8 µM
same,TGI,A549 NSCLC,34.2 µM
same,GI50,OVCAR-5 ovarian,34.4 µM
same,TGI,OVCAR-5 ovarian,> 100 µM
same,GI50,UO-31 renal,15.2 µM
same,TGI,UO-31 renal,40.4 µM
same,GI50,TK-10 renal,28.7 µM
same,TGI,TK-10 renal,> 100 µM
same,GI50,SK-MEL-28 melanoma,17 µM
same,TGI,SK-MEL-28 melanoma,75.5 µM
same,GI50,MCF7 breast,17.6 µM
same,TGI,MCF7 breast,> 100 µM
same,GI50,SR leukemia,7.12 µM
same,TGI,SR leukemia,> 100 µM
same,GI50,MALME-3M melanoma,19.1 µM
same,TGI,MALME-3M melanoma,78.9 µM
same,GI50,IGROV1 ovarian,16.7 µM
same,TGI,IGROV1 ovarian,45 µM
same,GI50,UACC-257 melanoma,22.5 µM
same,TGI,UACC-257 melanoma,90.9 µM
same,GI50,LOX IMVI melanoma,19 µM
same,TGI,LOX IMVI melanoma,50.7 µM
same,GI50,BT-549 breast,13.5 µM
same,TGI,BT-549 breast,43.6 µM
same,GI50,OVCAR-3 ovarian,16.8 µM
same,TGI,OVCAR-3 ovarian,46 µM
same,GI50,OVCAR-4 ovarian,15 µM
same,TGI,OVCAR-4 ovarian,53.4 µM
same,GI50,NCI/ADR-RES ovarian,4.39 µM
same,TGI,NCI/ADR-RES ovarian,30.7 µM
same,GI50,SF-539 CNS,19 µM
same,TGI,SF-539 CNS,44.6 µM
same,GI50,MOLT-4 leukemia,6.48 µM
same,TGI,MOLT-4 leukemia,63 µM
same,GI50,SK-OV-3 ovarian,14.7 µM
same,TGI,SK-OV-3 ovarian,55.7 µM
same,GI50,K-562 leukemia,12.7 µM
same,TGI,K-562 leukemia,> 100 µM
same,GI50,HOP-92 NSCLC,4.94 µM
same,TGI,HOP-92 NSCLC,24 µM
same,GI50,MDA-MB-435,3.49 µM
same,TGI,MDA-MB-435,25.4 µM
same,GI50,A498 renal,13 µM
same,TGI,A498 renal,30.8 µM
same,GI50,SK-MEL-5 melanoma,7.65 µM
same,TGI,SK-MEL-5 melanoma,23.9 µM
same,GI50,M14 melanoma,11.2 µM
same,TGI,M14 melanoma,34.6 µM
same,GI50,EKVX NSCLC,19.9 µM
same,TGI,EKVX NSCLC,83 µM
same,GI50,MDA-MB-231 breast,13.5 µM
same,TGI,MDA-MB-231 breast,46.4 µM
same,GI50,CAKI-1 renal,21.8 µM
same,TGI,CAKI-1 renal,63.3 µM
same,GI50,SN12C renal,43 µM
same,TGI,SN12C renal,> 100 µM
same,GI50,U251 CNS,17.2 µM
same,TGI,U251 CNS,55.1 µM
same,GI50,HCT-116 colon,11.4 µM
same,TGI,HCT-116 colon,32.4 µM
same,GI50,KM12 colon,19 µM
same,TGI,KM12 colon,75.2 µM
same,GI50,NCI-H226 lung,23.4 µM
same,TGI,NCI-H226 lung,78.8 µM
same,GI50,NCI-H23 lung,19.6 µM
same,TGI,NCI-H23 lung,68.6 µM
same,GI50,HCT-15 colon,19.4 µM
same,TGI,HCT-15 colon,> 100 µM
same,GI50,NCI-H522 lung,16.2 µM
same,TGI,NCI-H522 lung,58.4 µM
same,GI50,UACC-62 melanoma,27.4 µM
same,TGI,UACC-62 melanoma,> 100 µM
same,GI50,ACHN renal,27.4 µM
same,TGI,ACHN renal,> 100 µM
same,GI50,SF-295 CNS,15 µM
same,TGI,SF-295 CNS,41.3 µM
same,GI50,786-0 renal,14.9 µM
same,TGI,786-0 renal,45.8 µM
same,GI50,RXF 393 renal,7.84 µM
same,TGI,RXF 393 renal,26.1 µM
same,GI50,PC-3 prostate,6.56 µM
same,TGI,PC-3 prostate,80.2 µM
same,GI50,HOP-62 NSCLC,17.7 µM
same,TGI,HOP-62 NSCLC,47.4 µM
same,GI50,SK-MEL-2 melanoma,14.2 µM
same,TGI,SK-MEL-2 melanoma,52.5 µM
same,GI50,NCI-H460 lung,22 µM
same,TGI,NCI-H460 lung,> 100 µM
same,GI50,DU-145 prostate,25.1 µM
same,TGI,DU-145 prostate,91.6 µM
same,GI50,OVCAR-8 ovarian,11.6 µM
same,TGI,OVCAR-8 ovarian,40.3 µM
same,GI50,SF-268 CNS,24.9 µM
same,TGI,SF-268 CNS,> 100 µM
same,GI50,HCC-2998 colon,11 µM
same,TGI,HCC-2998 colon,32.5 µM
same,GI50,HL-60(TB) leukemia,12.2 µM
same,TGI,HL-60(TB) leukemia,> 100 µM
same,GI50,SW-620 colon,18 µM
same,TGI,SW-620 colon,46 µM
same,GI50,T-47D breast,6.73 µM
same,TGI,T-47D breast,51.7 µM
